Consider 2 molecules from ChEMBL document CHEMBL4507318, “Data for DCP probe BAY-985” (2021).

In assay [1] the test system is Tyrosine-protein kinase ABL1 (Homo sapiens), P00519 [F317I].
The target in assay [2] is Activin receptor type-2B (Homo sapiens) (UniProt Q13705).
The target in assay [3] is RAC-alpha serine/threonine-protein kinase (Homo sapiens) (UniProt P31749).
Assay [4] has as its target RAC-gamma serine/threonine-protein kinase (Homo sapiens) (UniProt Q9Y243).
Assay [5] has as its target Protein-tyrosine kinase 6 (Homo sapiens) (UniProt Q13882).
Assay [6] deals with Cyclin-dependent kinase 4 (Homo sapiens) (UniProt P11802).
Cyclin-dependent kinase 4 (Homo sapiens), sequence (P11802 whole entry): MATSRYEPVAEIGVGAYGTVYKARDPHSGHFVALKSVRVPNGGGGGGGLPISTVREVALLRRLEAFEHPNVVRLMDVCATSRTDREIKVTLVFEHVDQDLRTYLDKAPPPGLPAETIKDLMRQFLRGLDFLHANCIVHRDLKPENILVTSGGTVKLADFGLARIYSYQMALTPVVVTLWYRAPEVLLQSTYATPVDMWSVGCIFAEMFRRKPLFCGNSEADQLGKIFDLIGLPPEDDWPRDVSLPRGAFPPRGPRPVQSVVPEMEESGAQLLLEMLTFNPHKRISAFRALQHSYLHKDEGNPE
Assay [7] has as its target Ephrin type-A receptor 5 (Homo sapiens) (UniProt P54756).
Assay [8] has as its target Homeodomain-interacting protein kinase 2 (Homo sapiens) (UniProt Q9H2X6).
Assay [9] deals with Homeodomain-interacting protein kinase 4 (Homo sapiens) (UniProt Q8NE63).
Homeodomain-interacting protein kinase 4 (Homo sapiens), sequence (Q8NE63 whole entry): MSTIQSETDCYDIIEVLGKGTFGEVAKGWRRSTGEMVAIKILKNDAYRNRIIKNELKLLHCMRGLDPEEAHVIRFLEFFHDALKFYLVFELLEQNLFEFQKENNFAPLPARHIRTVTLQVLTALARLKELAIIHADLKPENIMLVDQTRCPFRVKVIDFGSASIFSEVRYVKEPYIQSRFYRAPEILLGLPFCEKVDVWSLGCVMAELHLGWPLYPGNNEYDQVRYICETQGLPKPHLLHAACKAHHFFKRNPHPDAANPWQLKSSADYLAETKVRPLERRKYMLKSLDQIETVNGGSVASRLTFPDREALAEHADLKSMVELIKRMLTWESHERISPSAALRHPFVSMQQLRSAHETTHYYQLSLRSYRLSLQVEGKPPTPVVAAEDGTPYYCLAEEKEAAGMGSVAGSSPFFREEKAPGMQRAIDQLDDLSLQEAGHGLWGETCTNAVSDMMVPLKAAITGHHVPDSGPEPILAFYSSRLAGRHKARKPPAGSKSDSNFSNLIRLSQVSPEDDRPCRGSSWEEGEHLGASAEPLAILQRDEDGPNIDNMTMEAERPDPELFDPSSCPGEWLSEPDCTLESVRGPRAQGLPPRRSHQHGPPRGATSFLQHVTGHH
Assay [10] has as its system Mast/stem cell growth factor receptor Kit (Homo sapiens), P10721 [V559D,V654A].
The target in assay [11] is Mitogen-activated protein kinase kinase kinase 10 (Homo sapiens) (UniProt Q02779).
Assay [12] concerns the target Cyclin-dependent kinase 15 (Homo sapiens) (UniProt Q96Q40).
The target in assay [13] is Serine/threonine-protein kinase PknB (Mycobacterium tuberculosis) (UniProt P9WI81).
Assay [14] has as its target Tyrosine-protein kinase Yes (Homo sapiens) (UniProt P07947).
The target in assay [15] is 5-hydroxytryptamine receptor 2A (Homo sapiens) (UniProt P28223). Particulars: Compound concentration 10.0 uM.
In assay [16] the target is Beta-1 adrenergic receptor (Homo sapiens) (UniProt P08588). The note with it: Compound concentration 10.0 uM.
The target in assay [17] is Beta-3 adrenergic receptor (Homo sapiens) (UniProt P13945). The note with it: Compound concentration 10.0 uM.
Assay [18] addresses 5-hydroxytryptamine receptor 2B (Homo sapiens, UniProt P41595). Briefly: GPCRScan assay: inhibition of 5-HT2B. Also noted: radioligand conc. used [nm] 1.0 – 2.0, parental cells stable HEK.
The target in assay [19] is T1, Serine/threonine-protein kinase TBK1 (Homo sapiens, UniProt Q9UHD2). The experiment in a line: Biochemical assay (high ATP) with TBK1.
Assay [20] deals with Mitogen-activated protein kinase kinase kinase 19 (Homo sapiens, UniProt Q56UN5). Briefly: NanoBRET with MAP3K19. Background: Bioluminescence resonance energy transfer reports proximity on the nanometre scale.
The target in assay [21] is Serine/threonine-protein kinase 17A (Homo sapiens, UniProt Q9UEE5). The experiment in a line: NanoBRET with STK17A.
Assay [22] has as its target Dual specificity mitogen-activated protein kinase kinase 5 (Homo sapiens, UniProt Q13163). The experiment in a line: NanoBRET with MAP2K5.
The target of assay [23] is Receptor-type tyrosine-protein kinase FLT3 (Homo sapiens, UniProt P36888). Briefly: NanoBRET with FTL3.
Assay [24] addresses Sodium-dependent dopamine transporter (Homo sapiens) (UniProt Q01959). Particulars: Compound concentration 10.0 uM.
In assay [25] the target is GABA-A receptor; anion channel (Rattus norvegicus) (UniProt O09028+P15431+P18506+P18508+P19969+P20236+P23574+P23576+P28471+P28473+P30191+P62813+P63079+P63138+Q91ZM7+Q9ES14). The note with it: Compound concentration 10.0 uM.
For assay [26], the target named is T1, Serine/threonine-protein kinase TBK1. The experiment in a line: cell-based.
Assay [27] addresses Inhibitor of nuclear factor kappa-B kinase subunit epsilon (Homo sapiens, UniProt Q14164). Briefly: cell-based.
Setting [28] is: Compound concentration 1000.0 nM.
Setting [29] is: Compound concentration 100.0 nM.

Structures are written as SMILES. The source made the active and inactive calls. No cut-off for these calls is given here.

RAC-gamma serine/threonine-protein kinase (Homo sapiens), sequence (Q9Y243 whole entry): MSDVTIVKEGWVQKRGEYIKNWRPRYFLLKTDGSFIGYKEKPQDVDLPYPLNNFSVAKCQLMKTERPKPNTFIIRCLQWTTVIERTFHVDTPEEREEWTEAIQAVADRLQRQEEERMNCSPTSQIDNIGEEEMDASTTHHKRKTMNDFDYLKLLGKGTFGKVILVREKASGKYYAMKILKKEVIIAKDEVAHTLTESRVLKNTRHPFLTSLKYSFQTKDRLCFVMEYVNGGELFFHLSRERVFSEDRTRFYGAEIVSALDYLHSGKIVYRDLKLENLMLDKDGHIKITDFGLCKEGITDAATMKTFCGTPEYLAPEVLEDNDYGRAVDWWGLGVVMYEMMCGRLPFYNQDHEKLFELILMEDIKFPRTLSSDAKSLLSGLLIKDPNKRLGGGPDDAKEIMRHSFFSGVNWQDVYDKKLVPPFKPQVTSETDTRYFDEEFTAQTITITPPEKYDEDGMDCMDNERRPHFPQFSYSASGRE
Protein-tyrosine kinase 6 (Homo sapiens), sequence (Q13882 whole entry, looked up): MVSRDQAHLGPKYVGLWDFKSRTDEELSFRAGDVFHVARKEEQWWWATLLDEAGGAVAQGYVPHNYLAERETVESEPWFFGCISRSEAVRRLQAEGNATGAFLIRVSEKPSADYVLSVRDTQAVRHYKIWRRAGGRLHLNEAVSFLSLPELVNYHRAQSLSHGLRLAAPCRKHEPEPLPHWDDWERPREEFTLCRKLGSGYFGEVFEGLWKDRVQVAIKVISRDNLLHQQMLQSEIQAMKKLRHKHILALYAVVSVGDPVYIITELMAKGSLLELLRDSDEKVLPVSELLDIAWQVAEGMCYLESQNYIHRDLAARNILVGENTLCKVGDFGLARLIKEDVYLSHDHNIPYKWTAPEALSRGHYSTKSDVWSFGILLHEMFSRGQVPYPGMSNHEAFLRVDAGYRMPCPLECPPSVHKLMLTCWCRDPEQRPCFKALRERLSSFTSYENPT
Activin receptor type-2B (Homo sapiens), sequence (Q13705 whole entry): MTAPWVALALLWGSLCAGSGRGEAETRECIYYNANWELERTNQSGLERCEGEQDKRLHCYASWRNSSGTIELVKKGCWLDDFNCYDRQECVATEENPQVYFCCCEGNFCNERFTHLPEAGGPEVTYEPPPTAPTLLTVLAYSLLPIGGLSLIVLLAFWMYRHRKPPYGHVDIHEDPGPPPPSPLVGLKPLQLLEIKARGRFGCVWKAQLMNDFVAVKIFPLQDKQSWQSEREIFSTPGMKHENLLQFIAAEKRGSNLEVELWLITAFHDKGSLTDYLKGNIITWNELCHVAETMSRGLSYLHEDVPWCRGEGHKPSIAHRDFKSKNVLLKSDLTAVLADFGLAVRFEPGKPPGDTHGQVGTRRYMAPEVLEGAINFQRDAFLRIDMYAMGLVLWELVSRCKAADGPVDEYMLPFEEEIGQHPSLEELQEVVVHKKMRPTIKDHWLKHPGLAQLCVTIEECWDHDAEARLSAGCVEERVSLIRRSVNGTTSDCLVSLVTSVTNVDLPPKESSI
RAC-alpha serine/threonine-protein kinase (Homo sapiens), sequence (P31749 whole entry): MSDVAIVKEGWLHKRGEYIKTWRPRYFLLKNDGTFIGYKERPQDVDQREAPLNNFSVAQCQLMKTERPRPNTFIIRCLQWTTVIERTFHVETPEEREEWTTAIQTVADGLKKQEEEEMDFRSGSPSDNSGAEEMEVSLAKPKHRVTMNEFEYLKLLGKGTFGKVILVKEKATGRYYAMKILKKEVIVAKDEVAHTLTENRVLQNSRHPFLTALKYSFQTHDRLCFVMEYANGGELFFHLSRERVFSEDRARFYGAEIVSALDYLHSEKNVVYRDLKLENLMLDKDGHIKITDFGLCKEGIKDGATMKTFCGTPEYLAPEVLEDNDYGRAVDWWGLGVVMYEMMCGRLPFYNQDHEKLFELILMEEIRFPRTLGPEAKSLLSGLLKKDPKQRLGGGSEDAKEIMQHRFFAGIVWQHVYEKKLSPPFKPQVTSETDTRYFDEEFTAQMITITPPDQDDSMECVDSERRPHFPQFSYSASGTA
Tyrosine-protein kinase ABL1 (Homo sapiens), P00519 [F317I], sequence (P00519 whole entry F317I): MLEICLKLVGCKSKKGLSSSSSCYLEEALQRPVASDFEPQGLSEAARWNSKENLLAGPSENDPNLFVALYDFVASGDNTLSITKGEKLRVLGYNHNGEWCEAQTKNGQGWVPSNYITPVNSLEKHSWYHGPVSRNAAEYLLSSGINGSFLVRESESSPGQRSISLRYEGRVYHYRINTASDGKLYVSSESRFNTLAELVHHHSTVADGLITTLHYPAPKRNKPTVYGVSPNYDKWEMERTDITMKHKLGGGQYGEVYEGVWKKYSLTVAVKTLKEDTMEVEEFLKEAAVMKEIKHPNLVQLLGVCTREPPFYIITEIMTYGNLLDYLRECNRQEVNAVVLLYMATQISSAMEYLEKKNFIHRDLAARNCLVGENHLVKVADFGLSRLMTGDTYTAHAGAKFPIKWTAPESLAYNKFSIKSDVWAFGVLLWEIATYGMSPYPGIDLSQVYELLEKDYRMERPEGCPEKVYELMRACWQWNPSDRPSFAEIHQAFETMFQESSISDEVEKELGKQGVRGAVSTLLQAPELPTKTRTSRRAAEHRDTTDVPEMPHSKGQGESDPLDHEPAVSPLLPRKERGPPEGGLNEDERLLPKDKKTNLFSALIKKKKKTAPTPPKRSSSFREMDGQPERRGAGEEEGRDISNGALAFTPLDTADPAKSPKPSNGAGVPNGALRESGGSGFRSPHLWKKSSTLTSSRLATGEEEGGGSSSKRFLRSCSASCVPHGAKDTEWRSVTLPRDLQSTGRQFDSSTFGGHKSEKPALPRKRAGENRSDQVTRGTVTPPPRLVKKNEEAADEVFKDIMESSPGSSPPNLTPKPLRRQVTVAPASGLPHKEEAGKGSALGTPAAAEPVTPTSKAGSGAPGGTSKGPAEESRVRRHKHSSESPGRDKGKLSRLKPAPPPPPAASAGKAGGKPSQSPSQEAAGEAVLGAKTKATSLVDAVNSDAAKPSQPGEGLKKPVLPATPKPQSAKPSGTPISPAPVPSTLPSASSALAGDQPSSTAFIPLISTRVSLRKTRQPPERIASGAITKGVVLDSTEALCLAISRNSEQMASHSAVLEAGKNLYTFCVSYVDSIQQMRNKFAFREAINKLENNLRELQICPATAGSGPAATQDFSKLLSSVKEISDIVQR
Ephrin type-A receptor 5 (Homo sapiens), sequence (P54756 whole entry): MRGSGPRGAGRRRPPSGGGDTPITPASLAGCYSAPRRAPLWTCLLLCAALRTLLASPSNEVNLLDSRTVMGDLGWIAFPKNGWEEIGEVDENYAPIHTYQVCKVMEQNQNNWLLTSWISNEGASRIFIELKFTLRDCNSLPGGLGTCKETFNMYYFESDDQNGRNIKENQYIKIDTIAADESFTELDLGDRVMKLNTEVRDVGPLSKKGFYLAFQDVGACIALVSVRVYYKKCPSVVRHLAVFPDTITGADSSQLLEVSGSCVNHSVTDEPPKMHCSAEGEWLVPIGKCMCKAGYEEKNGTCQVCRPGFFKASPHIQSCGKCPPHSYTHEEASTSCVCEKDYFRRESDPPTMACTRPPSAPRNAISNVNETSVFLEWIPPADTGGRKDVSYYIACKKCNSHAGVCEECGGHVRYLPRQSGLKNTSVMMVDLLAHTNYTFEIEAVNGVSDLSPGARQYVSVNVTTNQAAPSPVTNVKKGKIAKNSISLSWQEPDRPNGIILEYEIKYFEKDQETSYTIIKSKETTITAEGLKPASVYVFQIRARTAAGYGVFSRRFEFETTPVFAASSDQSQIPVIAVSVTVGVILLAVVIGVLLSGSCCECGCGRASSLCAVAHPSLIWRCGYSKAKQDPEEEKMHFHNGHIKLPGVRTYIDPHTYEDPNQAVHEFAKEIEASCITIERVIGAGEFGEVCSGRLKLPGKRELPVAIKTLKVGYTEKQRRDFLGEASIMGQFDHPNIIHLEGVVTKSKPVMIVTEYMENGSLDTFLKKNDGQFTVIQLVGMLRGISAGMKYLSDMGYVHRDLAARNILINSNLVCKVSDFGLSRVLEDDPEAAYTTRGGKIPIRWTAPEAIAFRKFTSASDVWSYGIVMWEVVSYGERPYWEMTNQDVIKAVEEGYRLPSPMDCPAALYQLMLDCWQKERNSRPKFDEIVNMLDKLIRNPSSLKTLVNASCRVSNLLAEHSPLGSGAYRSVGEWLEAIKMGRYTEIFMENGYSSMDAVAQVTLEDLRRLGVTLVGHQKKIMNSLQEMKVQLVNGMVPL

The term inhibition denotes the change of the read-out against control, counted positive when it falls. In the case of `CN(C)c1ncnc(-c2ccc3nc(Nc4cc(CN5CCN(C(=O)CC(F)(F)F)CC5)ccn4)[nH]c3c2)c1Cl` [BAY-440], the residual activity is 71% in assay [1] (setting [28]); 100% in assay [2] (setting [28]); 100% in assay [3] (setting [28]); 96% in [4] (setting [28]); 86% in assay [5] (setting [28]); 69% in assay [6] (setting [28]). The residual activity in [7] (setting [28]) is 100%; in [8] (setting [28]), 86%; in assay [9] (setting [28]), 100%; in assay [10] (setting [28]), 100%; in assay [11] (setting [28]), 100%; in assay [12] (setting [28]), 100%. Further, the results for the residual activity in [13] (setting [28]) and in [14] (setting [28]) were 100% and 76%, respectively. For the same molecule, the inhibition was -4.19% in assay [15], -6.2% in [16] and 4.42% in assay [17].
Broadly, the IC50 is the midpoint of a concentration-inhibition curve. For `C[C@H](c1ccnc(Nc2nc3ccc(-c4cc(N(C)C)ncn4)cc3[nH]2)c1)N1CCN(C(=O)CC(F)(F)F)CC1` [BAY-985], the results for the Ki in assay [18] (read-out: Ki) and in [18] (read-out: pKi (converted)) were 1310 nM and 1290 nM, respectively. The IC50 in [19] was 18 nM (active); in assay [20], > 20000 nM (not active); in assay [21], > 20000 nM (not active); in [22], > 20000 nM (not active); in [23] it was > 20000 nM (not active); in [26], 312 nM (active). For the same molecule, the IC50 in [27] is 1730 nM (active). The residual activity in [1] (setting [29]) is 100%; in assay [2] (setting [29]) it was 81%; in assay [3] (setting [29]), 100%; in [4] (setting [29]), 100%; in assay [5] (setting [29]), 85%; in assay [6] (setting [29]), 100%. In addition, the residual activity is 81% in assay [7] (setting [29]); 100% in assay [8] (setting [29]); 100% in [9] (setting [29]); 100% in assay [10] (setting [29]); 100% in assay [11] (setting [29]); 100% in [12] (setting [29]). Besides, the figures for the residual activity in [13] (setting [29]) and in assay [14] (setting [29]) were 91% and 92%, respectively. Moreover, the inhibition in assay [24] is 30.5%; in [16], 24.3%; in assay [17], 30.4%; in [25] it was 23%.
